The values below come from patent publication US4321384A, “Antihypertensive agents” (American Home Products Corporation, priority 1981, dated 1982).

The test system of experiment [1] is spontaneously hypertensive rats. Put plainly: Systolic blood pressure lowering in spontaneously hypertensive rats. In kind it is in vivo, rat. On the procedure: The in vivo blood pressure lowering ability of the compounds of this invention was established by measuring the systolic pressure of spontaneously hypertensive rats with a Decker Caudal Plethysmograph or similar sensor device. The compound being tested is administered to groups of four rats and their blood pressure is read prior to compound administration and at 1.5 and 4 hours after compound administration. Depending upon the behavior of the compound being tested, the schedule of blood pressure readings and route of administration is modified. Initially the compounds are administered orally but where compound solubility is a factor, the compounds may be administered parenterally (i.e. i.p., i.m., s.c., i.v., etc.) as desired. The compounds of this invention were initially administered orally at a standard testing dose of 50 mg/kg.
The following examples illustrate the preparation of a representative number of compounds of this invention. After each example, the Ca^+2 antagonist activity of the compound is presented in terms of percent relaxation (P.R.) at the stated concentration. Similarly, the antihypertensive activity is reported in terms of millimeters mercury (mmHg) blood pressure (B.P.) reduction at the stated time post 50 mg/kg oral dosing.

The subject of experiment [2] is rabbit aortic strips. The experiment in a line: Ca+2 antagonism: relaxation of potassium-contracted rabbit aortic strips. In kind it is cell-based. Particulars: Oryctolagus cuniculus; 10^-6 M bath concentration; strips contracted with 100 millimoles potassium ion; read-out: percent relaxation (P.R.).
In experiment [3] the test system is spontaneously hypertensive rats. The experiment in a line: Systolic blood pressure lowering in spontaneously hypertensive rats. Particulars: 1.5 hours post dose 25 mg/kg. Format: in vivo, rat.
In experiment [4] the test system is rabbit aortic strips. Put plainly: Ca+2 antagonism: relaxation of potassium-contracted rabbit aortic strips. Format: cell-based. The settings on record: Oryctolagus cuniculus; 10^-5 M bath concentration; strips contracted with 100 millimoles potassium ion; read-out: percent relaxation (P.R.). The procedure:
After a stable active tension has developed in the strip, as measured by Statham UC-2 force transducers and recorded on an eight channel Beckman Dynograph Polygraphic Recorder, an amount of the antagonist was added to the organ bath to make a 10^-5 molar concentration of antagonist. The […] effect, expressed as percent relaxation, was taken from the mean of at least two experiments. […] A Ca^+2 antagonist producing a 20 percent relaxation of aortic tissue in this test procedure at a 10^-5 molar bath concentration of the antagonist, generally produces a significant reduction in blood pressure when a sufficient amount is given to the spontaneously hypertensive rat. The following examples illustrate the preparation of a representative number of compounds of this invention. After each example, the Ca^+2 antagonist activity of the compound is presented in terms of percent relaxation (P.R.) at the stated concentration. Similarly, the antihypertensive activity is reported in terms of millimeters mercury (mmHg) blood pressure (B.P.) reduction at the stated time post 50 mg/kg oral dosing.

The mark [5] stands for this setting: 1.5 hours post 50 mg/kg oral dosing.
[6] abbreviates: 4 hours post 50 mg/kg oral dosing.

Counter-ions that a name gives are not always drawn.

As to `COC(=O)C1=C(C)NC2=C(C(=O)CN(Cc3ccccc3)C2)C1c1ccccc1C` (stereo not shown) [Example 3, 1,4,5,6,7,8-Hexahydro-2-methyl-4-(2-methylphenyl)-5-oxo-7-(phenylmethyl)-1,7-naphthyridine-3-carboxylic acid methyl ester], the figures for the “blood pressure (B.P.) reduction” value in experiment [1] (setting [5]) and in experiment [1] (setting [6]) were -23 mmHg and -41 mmHg, respectively. Besides, the inhibition at 1 µM in experiment [2] stood at 90%.

On to `COC(=O)C1=C(C)NC2=C(C(=O)CN(Cc3ccccc3)C2)C1c1ccccc1C(F)(F)F` (stereo not shown) [Example 5, 1,4,5,6,7,8-Hexahydro-2-methyl-5-oxo-7-(phenylmethyl)-4-[2-(trifluoromethyl)phenyl]-1,7-naphthyridine-3-carboxylic acid methyl ester], for which the inhibition at 1 µM in experiment [2] was 40%.

As for `COC(=O)C1=C(C)NC2=C(C(=O)CN(Cc3ccccc3)C2)C1c1cccc([N+](=O)[O-])c1` (stereo not shown) [Example 10, 1,4,5,6,7,8-Hexahydro-2-methyl-4-(3-nitrophenyl)-5-oxo-7-(phenylmethyl)-1,7-naphthyridine-3-carboxylic acid methyl ester], the inhibition at 1 µM in experiment [2] is 89.7%.

On to `COC(=O)C1=C(C)NC2=C(C(=O)CNC2)C1c1cccc([N+](=O)[O-])c1` (stereo not shown) [Example 13, 1,4,5,6,7,8-Hexahydro-2-methyl-4-(3-nitrophenyl)-5-oxo-1,7-naphthyridine-3-carboxylic acid methyl ester], for which, in experiment [3], the “blood pressure (B.P.) reduction” value is reported as -58 mmHg. Besides, in experiment [4], the inhibition at 10 µM came out at 86.5%.

In the case of `COC(=O)C1=C(C)NC2=C(C(=O)CN(Cc3ccccc3)C2)C1c1cccc(C(F)(F)F)c1` (stereo not shown) [Example 14 intermediate, 1,4,5,6,7,8-hexahydro-2-methyl-5-oxo-7-(phenylmethyl)-4-[3-(trifluoromethyl)phenyl]-1,7-naphthyridine-3-carboxylic acid methyl ester hydrochloride], the inhibition at 1 µM in experiment [2] stood at 46.2%.

For the molecule `COC(=O)C1=C(C)NC2=C(C(=O)CN(Cc3ccccc3)C2)C1c1ccccc1F` (stereo not shown) [Example 15 intermediate, 4-(2-fluorophenyl)-1,4,5,6,7,8-hexahydro-2-methyl-5-oxo-7-(phenylmethyl)-1,7-naphthyridine-3-carboxylic acid methyl ester hydrochloride], the inhibition at 1 µM in experiment [2] is 48%.

Regarding `COC(=O)C1=C(C)NC2=C(C(=O)CNC2)C1c1ccccc1F` (stereo not shown) [Example 15, 4-(2-Fluorophenyl)-1,4,5,6,7,8-hexahydro-2-methyl-5-oxo-1,7-naphthyridine-3-carboxylic acid methyl ester], the “blood pressure (B.P.) reduction” value in experiment [1] (setting [5]) is -45 mmHg. Besides, in experiment [4], the inhibition at 10 µM was 54%.

For the molecule `COC(=O)C1=C(C)NC2=C(C(=O)CN(C)C2)C1c1cccc(C#N)c1` (stereo not shown) [Example 16, 4-(3-Cyanophenyl)-1,4,5,6,7,8-Hexahydro-2,7-dimethyl-5-oxo-1,7-naphthyridine-3-carboxylic acid methyl ester], in experiment [1] (setting [5]), the “blood pressure (B.P.) reduction” value is -53 mmHg. The inhibition at 10 µM in experiment [4] was found to be 66%.

`COC(=O)C1=C(C)NC2=C(C(=O)CN(C)C2)C1c1cccc(C)c1C` (stereo not shown) [Example 17, 4-(2,3-Dimethylphenyl)-1,4,5,6,7,8-hexahydro-2,7-dimethyl-5-oxo-1,7-naphthyridine-3-carboxylic acid methyl ester]: the “blood pressure (B.P.) reduction” value in experiment [1] (setting [6]) was -40 mmHg. Besides, the inhibition at 10 µM in experiment [4] turned out to be 54%.

As to `CCCCc1ccccc1C1C(C(=O)OC)=C(C)NC2=C1C(=O)CN(Cc1ccccc1)C2` (stereo not shown) [Example 18, 4-[2-(n-butyl)phenyl]-1,4,5,6,7,8-Hexahydro-2-methyl-5-oxo-7-(phenylmethyl)-1,7-naphthyridine-3-carboxylic acid methyl ester], the inhibition at 1 µM in experiment [2] was found to be 61%.

On to `CCCCc1ccccc1C1C(C(=O)OC)=C(C)NC2=C1C(=O)CNC2` (stereo not shown) [Example 19, 4-[2-(n-butyl)phenyl]-1,4,5,6,7,8-hexahydro-2-methyl-5-oxo-1,7-naphthyridine-3-carboxylic acid methyl ester], for which the “blood pressure (B.P.) reduction” value in experiment [1] (setting [5]) is -24 mmHg. Moreover, the inhibition at 10 µM in experiment [4] is 49.2%.

Regarding `COC(=O)C1=C(C)NC2=C(C(=O)CN(Cc3ccccc3)C2)C1c1cccc(C)c1C` (stereo not shown) [Example 20, 4-(2,3-dimethylphenyl)-1,4,5,6,7,8-hexahydro-2-methyl-5-oxo-7-(phenylmethyl)-1,7-naphthyridine-3-carboxylic acid methyl ester], the “blood pressure (B.P.) reduction” value in experiment [1] (setting [5]) is -24 mmHg; in experiment [1] (setting [6]), -39 mmHg. The inhibition at 1 µM in experiment [2] is 33.3%. The inhibition at 10 µM in experiment [4] stood at 80.4%.

With `COC(=O)C1=C(C)NC2=C(C(=O)CNC2)C1c1cccc(C)c1C` (stereo not shown) [Example 21, 4-(2,3-dimethylphenyl)-1,4,5,6,7,8-hexahydro-2-methyl-5-oxo-1,7-naphthyridine-3carboxylic acid methyl ester], the “blood pressure (B.P.) reduction” value in experiment [1] (setting [5]) is recorded as -42 mmHg; in experiment [1] (setting [6]), -45 mmHg. In addition, in experiment [4], the inhibition at 10 µM came to 76.7%.

For `CC1=C(C(=O)OCCN(C)Cc2ccccc2)C(c2ccccc2C(F)(F)F)C2=C(CN(Cc3ccccc3)CC2=O)N1` (stereo not shown) [Example 22, 1,4,5,6,7,8-Hexahydro-2-methyl-5-oxo-7-phenylmethyl-4-[2-(trifluoromethyl)phenyl]-1,7-naphthyridine-3-carboxylic acid, 2-(N-benzyl-N-methylamino)ethylester], the “blood pressure (B.P.) reduction” value is reported as -74 mmHg in experiment [1] (setting [5]) and -68 mmHg in experiment [1] (setting [6]). In addition, in experiment [2], the inhibition at 1 µM stood at 55.6%.
